The target of this experiment is human orexin-2 receptor (Homo sapiens (Human), UniProt O43614). Description: Human Orexin 2 Receptor Radioligand Binding Studies ([3H]-EMPA competition). As to conditions: HEK293 cells stably expressing human orexin-2 receptor; [3H]-EMPA 5 nM; apparent Ki; read-out: OR 2 Ki.

Structures are written as SMILES.

Sequence of human orexin-2 receptor (O43614 whole entry): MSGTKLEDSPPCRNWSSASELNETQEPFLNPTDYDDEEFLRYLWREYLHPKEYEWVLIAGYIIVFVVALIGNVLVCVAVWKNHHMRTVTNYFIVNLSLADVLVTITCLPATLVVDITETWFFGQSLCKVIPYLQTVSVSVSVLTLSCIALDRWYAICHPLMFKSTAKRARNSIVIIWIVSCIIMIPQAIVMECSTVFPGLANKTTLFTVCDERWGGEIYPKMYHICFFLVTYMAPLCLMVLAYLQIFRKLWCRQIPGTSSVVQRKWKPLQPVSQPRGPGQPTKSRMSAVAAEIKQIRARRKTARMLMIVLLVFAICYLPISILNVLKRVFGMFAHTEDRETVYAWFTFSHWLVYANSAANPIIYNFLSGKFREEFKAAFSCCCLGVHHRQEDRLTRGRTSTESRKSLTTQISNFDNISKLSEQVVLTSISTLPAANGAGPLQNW

For the molecule `O=C(c1cccc(F)c1-n1nccn1)N1CC2CN(c3cnc4cc(F)c(F)cc4n3)CC2C1` (stereo not shown) [Example 244, (5-(6,7-Difluoroquinoxalin-2-yl)hexahydropyrrolo[3,4-c]pyrrol-2(1H)-yl)(3-fluoro-2-(2H-1,2,3-triazol-2-yl)phenyl)methanone], the Ki is 18 nM.
